Data from US20260144793A1, “METHODS OF TREATING CANCER” (AMGEN INC., priority 2022, published 2026).

Key:
[1] = test system: phosphorylation of extracellular signal-regulated kinase (ERK); details: preclinical studies; cited from earlier work
[2] = test system: patients with KRAS G12C-mutated NSCLC, CRC, or other solid tumors; details: N = 27, all RMC-4630 doses with sotorasib 960 mg QD; TRAEs related to the labelled drug (combination: either drug)
Excerpt: Note that D1D4 indicates administration of Day 1 and Day 4 of each 7 days.
Dose exploration will begin with treating 3-4 subjects at Dose Level 1. The study dose-limiting toxicity (DLT) period is 21 days. Once all subjects enrolled at a certain dose level and schedule are DLT evaluable, a Dose Level Review Team (DLRT) meeting will be convened. For any dose level (including Dose Level 1), and depending on observed safety data, the following may occur: 1) dose escalation to the next highest dose level or 2) additional enrollment to the current dose level or 3) dose de-escalation to the next lowest dose level. Rules for dose-escalation/de-escalation are derived using a modified Toxicity Probability Interval-2 (mTPI-2) model (Guo et al, 2017) with a target toxicity probability of 0.30 (Table 2)
The grading of adverse events will be based on the guidelines provided in the CTCAE version 5.0. […] A subject without a DLT will not be DLT evaluable if the date of decision to end both investigational products is before the completion of the DLT window.
The adverse event grading scale to be used for this study will be the CTCAE v5.0. The investigator is responsible for ensuring that all serious adverse events observed by the investigator or reported by the subject that occur after the signing of the informed consent through the safety follow-up visit or 30 days after last day of dosing interval of investigational product(s)/protocol-required therapies, whichever is later, are reported using the Events CRF. The criteria for grade 4 in the CTCAE grading scale differs from the regulatory criteria for serious adverse events. If adverse events correspond to a grade 4 CTCAE toxicity grading scale criteria (e.g., laboratory abnormality reported as grade 4 without manifestation of life-threatening status), it will be left to the investigator's judgment to also report these abnormalities as serious adverse events. For any adverse event that applies to this situation, comprehensive documentation of the event's severity must be recorded in the subject medical records. If the investigator becomes aware of serious adverse events suspected to be related to investigational products after the protocol-required reporting period is complete, then these serious adverse events will be reported within 24 hours following the investigator's awareness of the event using the Events CRF. Since a study endpoint is overall survival, the investigator will also need to collect/report fatal serious adverse events (regardless of causality) within 24 hours following investigator's awareness of the event. […] However, if the investigator becomes aware of serious adverse events suspected to be related to investigational products, then these serious adverse events will be reported within 24 hours following the investigator's awareness of the event. Serious adverse events reported outside of the protocol-required reporting period will be captured within the safety database as clinical trial cases and handled accordingly based on relationship to investigational product. If further safety related data is needed to fulfill any regulatory reporting requirements for a reportable event, then additional information may need to be collected from the subject's records after the subject ends the study.
The primary endpoint was safety/tolerability. Secondary endpoints included objective response rate per RECIST 1.1 and pharmacokinetics.

[3] = Concomitant administration of sotorasib with acid reducing agents; assay type: in vivo; details: with proton pump inhibitors (e.g., omeprazole) or H2-receptor antagonists (e.g., famotidine)
[4] = Phase 1b study of sotorasib in combination with RMC-4630: pharmacokinetic analysis; assay type: in vivo, human; details: sotorasib 960 mg QD + RMC-4630 100, 140 or 200 mg; compared with monotherapy studies
Excerpt: The primary endpoint was safety/tolerability.

## C=CC(=O)N1CCN(c2nc(=O)n(-c3c(C)ccnc3C(C)C)c3nc(-c4c(O)cccc4F)c(F)cc23)[C@@H](C)C1 [Sotorasib, 6-fluoro-7-(2-fluoro-6-hydroxyphenyl)-(1M)-1-[4-methyl-2-(propan-2-yl)pyridin-3-yl]-4-[(2S)-2-methyl-4-(prop-2-enoyl)piperazin-1-yl]pyrido[2,3-d]pyrimidin-2 (1H)-one]
[1]
  Inhibition of ERK phosphorylation: inhibited nearly all detectable phosphorylation
[2]
  AST increased, All Grades, %: 4%
  AST increased, Grade 3, %: 4%
  Ascites, All Grades, %: 4%
  Ascites, Grade 3, %: 4%
  Colitis, All Grades, %: 4%
  Colitis, Grade 3, %: 4%
  Diarrhea, All Grades, %: 26%
  Diarrhea, Grade 3, %: 7%
  Dry mouth, All Grades, %: 11%
  Dyspnea, All Grades, %: 4%
  Dyspnea, Grade 3, %: 4%
  Edema (general, peripheral, periorbital, facial), All Grades, %: 26%
  Fatigue, All Grades, %: 11%
  Total TRAE, All Grades, %: 56%
  Total TRAE, Grade 3, %: 22%
[3]
  Sotorasib concentrations on concomitant administration: decreased sotorasib concentrations
[4]
  Average exposure in the combination: consistent with distributions observed in monotherapy studies
